Measured values taken from patent US10987403B2, “Cyclodextrin-Nle3-A(1-7) compositions and their use” (University of Southern California, priority 2017, dated 2021).
Where no end group is shown, it is not given here. [ ]: non-standard residue; d: D form. Nle = CCCC[C@H](N)C(=O)O

How the values were obtained:
gemcitabine-treated mice [1] = experiment: White blood cell counts in gemcitabine-treated mice (oral efficacy study); format: in vivo, C57Bl/6 mice; details: subcutaneous, 0.3 mg/kg daily for 21 days after 160 mg/kg gemcitabine; FIG. 1
Experimental: (§1) The female C57Bl/6 mice (7 per group), 6-8 weeks old, were treated with the formulations described above daily starting 1 day after intravenous injection with chemotherapy, 160 mg/kg gemcitabine. On days 1, 3, 7, 15 and 21 after chemotherapy administration, blood was taken under anesthesia from the saphenous vein to assess white blood cell, and platelet numbers. On day 22, the mice were euthanized and bone marrow collected to assess the number of colony forming units.
(§2) The mice were bled from the saphenous vein. The mice were anesthetized by placing the nose of the animals in a 50 ml conical tube containing cotton balls soaked with isoflurane (an inhaled anesthesia). […]
(§3) Twenty μl of blood was mixed with 180 μl of RBC lysing solution (0.83% NH4Cl, 10 mM EDTA, 0.5% NaHCO3). […] This mixture was vortexed and the number of WBC was evaluated by hematocytometer under light microscopy and the number of platelets was evaluated by hematocytometer under phase contrast microscopy.
(§4) In order to assess the oral efficacy, gemcitabine-treated mice were treated daily for 21 days with five treatments: 1) SQ dosed saline, 2) SQ dosed A(1-7) at 0.3 mg/kg, 3) SQ dosed NorLeu3-A(1-7) at 0.3 mg/kg, 4) orally dosed β-CD formulated A(1-7) at 0.3 mg/kg, or 5) orally dosed β-CD formulated NorLeu-A(1-7)) at 0.3 mg/kg. The effects of these treatments on peripheral blood counts were assessed.

gemcitabine-treated mice [2] = experiment: Platelet counts in gemcitabine-treated mice (oral efficacy study); format: in vivo, C57Bl/6 mice; details: subcutaneous, 0.3 mg/kg daily for 21 days after 160 mg/kg gemcitabine; FIG. 3
Experimental: as §1, §2, §3, §4

Substance	number of circulating WBC (gemcitabine-treated mice [1])	circulating platelet numbers (gemcitabine-treated mice [2])
Asp-Arg-Nle-Tyr-Ile-His-Pro (DR[Nle]YIHP) [NorLeu3-A(1-7), dosed subcutaneously as comparator]	increased the number of circulating WBC	did not circulating platelet numbers
angiotensin (1-7) (DRVYIHP; Angiotensin 1-7; UniProt P01019 25-31, looked up, fragment) [A(1-7), Investigational Mas agonist peptide]	increased the number of circulating WBC	–
